System: A498 complex spheroids with HUVEC/MSC, growth
Assay: Anticancer human tumor A498 cell line growth inhibition [AhR];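 further: seven day exposure starting three days after spheroid seeding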;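 on viability, T/C: luminescence signal used as a surrogate for viable cells; luminescence viability scaled so 100% equals DMSO vehicle wells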
Details: for IC50: curve of first compound; for viability, T/C: stronger effect = lower value
Procedure, shortened: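 Complex tumor spheroids co-cultured with HUVEC and human MSC stroma; AhR antagonists tested in combination with standard-of-care and investigational agents. Top concentration at or near clinical Cmax (else 10 microM), half-log dilutions; growth expressed as percent test/control.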

[1] = second compound 0.1 µM, first compound 0.00316 µM
[2] = second compound 0.1 µM, first compound 0.01 µM
[3] = second compound 0.1 µM, first compound 0.0316 µM
[4] = second compound 0.1 µM, first compound 0.1 µM
[5] = second compound 0.316 µM, first compound 0.00316 µM
[6] = second compound 0.316 µM, first compound 0.01 µM
[7] = second compound 0.316 µM, first compound 0.0316 µM
[8] = second compound 0.316 µM, first compound 0.1 µM
[9] = second compound 1 µM, first compound 0.00316 µM
[10] = second compound 1 µM, first compound 0.01 µM
[11] = second compound 1 µM, first compound 0.0316 µM
[12] = second compound 1 µM, first compound 0.1 µM
[13] = second compound 3.16 µM, first compound 0.00316 µM
[14] = second compound 3.16 µM, first compound 0.01 µM
[15] = second compound 3.16 µM, first compound 0.0316 µM
[16] = second compound 3.16 µM, first compound 0.1 µM
[17] = second compound 10 µM, first compound 0.00316 µM
[18] = second compound 10 µM, first compound 0.01 µM
[19] = second compound 10 µM, first compound 0.0316 µM
[20] = second compound 10 µM, first compound 0.1 µM
[21] = second compound 0.1 µM, first compound 0.316 µM
[22] = second compound 0.1 µM, first compound 1 µM
[23] = second compound 0.1 µM, first compound 3.16 µM
[24] = second compound 0.1 µM, first compound 10 µM
[25] = second compound 0.316 µM, first compound 0.316 µM
[26] = second compound 0.316 µM, first compound 1 µM
[27] = second compound 0.316 µM, first compound 3.16 µM
[28] = second compound 0.316 µM, first compound 10 µM
[29] = second compound 1 µM, first compound 0.316 µM
[30] = second compound 1 µM, first compound 1 µM
[31] = second compound 1 µM, first compound 3.16 µM
[32] = second compound 1 µM, first compound 10 µM
[33] = second compound 3.16 µM, first compound 0.316 µM
[34] = second compound 3.16 µM, first compound 1 µM
[35] = second compound 3.16 µM, first compound 3.16 µM
[36] = second compound 3.16 µM, first compound 10 µM
[37] = second compound 10 µM, first compound 0.316 µM
[38] = second compound 10 µM, first compound 1 µM
[39] = second compound 10 µM, first compound 3.16 µM
[40] = second compound 10 µM, first compound 10 µM

CC[C@@]1(O)C(=O)OCc2c1cc1n(c2=O)Cc2cc3c(CN(C)C)c(O)ccc3nc2-1 + Cc1cncc(-c2nc(NCCc3c[nH]c4ccccc34)c3ncn(C(C)C)c3n2)c1 was tested, and the IC50 (second compound 0.1 µM) was greater than 100 nM, the IC50 (second compound 0.316 µM) was greater than 100 nM and the IC50 (second compound 1 µM) was greater than 100 nM. It also gave an IC50 (second compound 3.16 µM) greater than 100 nM, an IC50 (second compound 10 µM) of less than 0.316 nM and a viability, T/C (second compound 0.1 µM, first compound 0.000316 µM) of 87.4%. The viability, T/C (second compound 0.1 µM, first compound 0.001 µM) was 92.5%, the viability, T/C [1] was 90.1% and the viability, T/C [2] was 84.7%. It also gave a viability, T/C [3] of 72.9%, a viability, T/C [4] of 69.8% and a viability, T/C (second compound 0.316 µM, first compound 0.000316 µM) of 88.7%. The viability, T/C (second compound 0.316 µM, first compound 0.001 µM) was 92.2%, the viability, T/C [5] was 91.1% and the viability, T/C [6] was 83.1%. The viability, T/C [7] was 83.3%, the viability, T/C [8] was 72.9% and the viability, T/C (second compound 1 µM, first compound 0.000316 µM) was 89.2%. For the same molecule, the viability, T/C (second compound 1 µM, first compound 0.001 µM) was 92.5%, the viability, T/C [9] was 98.3% and the viability, T/C [10] was 76.5%. For the same molecule, the viability, T/C [11] was 77%, the viability, T/C [12] was 66.6% and the viability, T/C (second compound 3.16 µM, first compound 0.000316 µM) was 61.4%. For the same molecule, the viability, T/C (second compound 3.16 µM, first compound 0.001 µM) was 72.9%, the viability, T/C [13] was 65.8% and the viability, T/C [14] was 60.5%. It also gave a viability, T/C [15] of 56.5%, a viability, T/C [16] of 53.1% and a viability, T/C (second compound 10 µM, first compound 0.000316 µM) of 4.54%. It also gave a viability, T/C (second compound 10 µM, first compound 0.001 µM) of 6%, a viability, T/C [17] of 7.18% and a viability, T/C [18] of 5.32%. The viability, T/C [19] was 6.79% and the viability, T/C [20] was 8.73%.
For COc1cc(C2c3cc4c(cc3C(OC3OC5COC(C)OC5C(O)C3O)C3COC(=O)C23)OCO4)cc(OC)c1O (stereo not given) + Cc1cncc(-c2nc(NCCc3c[nH]c4ccccc34)c3ncn(C(C)C)c3n2)c1, the IC50 (second compound 0.1 µM) was greater than 10000 nM, the IC50 (second compound 0.316 µM) was greater than 10000 nM and the IC50 (second compound 1 µM) was greater than 10000 nM. It also gave an IC50 (second compound 3.16 µM) of 3640 nM, an IC50 (second compound 10 µM) of less than 31.6 nM and a viability, T/C [3] of 79.4%. For the same molecule, the viability, T/C [4] was 73%, the viability, T/C [21] was 73.3% and the viability, T/C [22] was 68.1%. It also gave a viability, T/C [23] of 62.4%, a viability, T/C [24] of 52.2% and a viability, T/C [7] of 83.7%. For the same molecule, the viability, T/C [8] was 76.6%, the viability, T/C [25] was 79.9% and the viability, T/C [26] was 69%. The viability, T/C [27] was 59.9%, the viability, T/C [28] was 59% and the viability, T/C [11] was 79.8%. It also gave a viability, T/C [12] of 74%, a viability, T/C [29] of 74.4% and a viability, T/C [30] of 60.5%. It also gave a viability, T/C [31] of 56.3%, a viability, T/C [32] of 50.1% and a viability, T/C [15] of 61.4%. It also gave a viability, T/C [16] of 63.6%, a viability, T/C [33] of 66.9% and a viability, T/C [34] of 56.8%. For the same molecule, the viability, T/C [35] was 47.1%, the viability, T/C [36] was 43.2% and the viability, T/C [19] was 3.97%. For the same molecule, the viability, T/C [20] was 4.03%, the viability, T/C [37] was 4.95% and the viability, T/C [38] was 4.99%. The viability, T/C [39] was 5.98% and the viability, T/C [40] was 6.6%.
For COc1cccc2c1C(=O)c1c(O)c3c(c(O)c1C2=O)CC(O)(C(=O)CO)CC3OC1CC(N)C(O)C(C)O1 (stereo not given) + Cc1cncc(-c2nc(NCCc3c[nH]c4ccccc34)c3ncn(C(C)C)c3n2)c1, the IC50 (second compound 0.1 µM) was 266 nM, the IC50 (second compound 0.316 µM) was 380 nM and the IC50 (second compound 1 µM) was 175 nM. For the same molecule, the IC50 (second compound 3.16 µM) was less than 31.6 nM, the IC50 (second compound 10 µM) was less than 31.6 nM and the viability, T/C [3] was 64.7%. For the same molecule, the viability, T/C [4] was 57.1%, the viability, T/C [21] was 48.8% and the viability, T/C [22] was 20.3%. For the same molecule, the viability, T/C [23] was 1.26%, the viability, T/C [24] was 0.76% and the viability, T/C [7] was 61.1%. For the same molecule, the viability, T/C [8] was 65.6%, the viability, T/C [25] was 56.3% and the viability, T/C [26] was 15.4%. It also gave a viability, T/C [27] of 1.1%, a viability, T/C [28] of 0.72% and a viability, T/C [11] of 58.6%. For the same molecule, the viability, T/C [12] was 55.9%, the viability, T/C [29] was 43.1% and the viability, T/C [30] was 10.3%. It also gave a viability, T/C [31] of 1.14%, a viability, T/C [32] of 0.7% and a viability, T/C [15] of 48.8%. It also gave a viability, T/C [16] of 50.7%, a viability, T/C [33] of 37.7% and a viability, T/C [34] of 2.21%. The viability, T/C [35] was 1.26%, the viability, T/C [36] was 0.84% and the viability, T/C [19] was 5.86%. It also gave a viability, T/C [20] of 6.1%, a viability, T/C [37] of 9.17% and a viability, T/C [38] of 0.29%. The viability, T/C [39] was 0.94% and the viability, T/C [40] was 0.55%.
With Nc1ccn(C2OC(CO)C(O)C2(F)F)c(=O)n1 (stereo not given) + Cc1cncc(-c2nc(NCCc3c[nH]c4ccccc34)c3ncn(C(C)C)c3n2)c1 the IC50 (second compound 0.1 µM) was less than 31.6 nM, the IC50 (second compound 0.316 µM) was less than 31.6 nM and the IC50 (second compound 1 µM) was less than 31.6 nM. It also gave an IC50 (second compound 3.16 µM) of less than 31.6 nM, an IC50 (second compound 10 µM) of less than 31.6 nM and a viability, T/C [3] of 26.9%. For the same molecule, the viability, T/C [4] was 33.5%, the viability, T/C [21] was 41.7% and the viability, T/C [22] was 41.2%. The viability, T/C [23] was 36.5%, the viability, T/C [24] was 39.1% and the viability, T/C [7] was 29%. The viability, T/C [8] was 32%, the viability, T/C [25] was 42.7% and the viability, T/C [26] was 43.7%. For the same molecule, the viability, T/C [27] was 41.9%, the viability, T/C [28] was 39.9% and the viability, T/C [11] was 32.7%. The viability, T/C [12] was 26.5%, the viability, T/C [29] was 39.7% and the viability, T/C [30] was 42.2%. The viability, T/C [31] was 39.5%, the viability, T/C [32] was 34% and the viability, T/C [15] was 45.1%. The viability, T/C [16] was 27.8%, the viability, T/C [33] was 28.7% and the viability, T/C [34] was 30.5%. For the same molecule, the viability, T/C [35] was 28.8%, the viability, T/C [36] was 33% and the viability, T/C [19] was 4.54%. The viability, T/C [20] was 4.79%, the viability, T/C [37] was 5.17% and the viability, T/C [38] was 3.59%. The viability, T/C [39] was 3.85% and the viability, T/C [40] was 5.49%.
In the case of Nc1ncn(C2CC(O)C(CO)O2)c(=O)n1 (stereo not given) + Cc1cncc(-c2nc(NCCc3c[nH]c4ccccc34)c3ncn(C(C)C)c3n2)c1, the IC50 (second compound 0.1 µM) is reported as greater than 1000 nM, the IC50 (second compound 0.316 µM) is reported as greater than 1000 nM and the IC50 (second compound 1 µM) is reported as greater than 1000 nM. The IC50 (second compound 3.16 µM) was greater than 1000 nM, the IC50 (second compound 10 µM) was less than 3.16 nM and the viability, T/C [1] was 83.2%. The viability, T/C [2] was 93.2%, the viability, T/C [3] was 88.5% and the viability, T/C [4] was 85.4%. For the same molecule, the viability, T/C [21] was 75%, the viability, T/C [22] was 70.1% and the viability, T/C [5] was 90.3%. For the same molecule, the viability, T/C [6] was 94.5%, the viability, T/C [7] was 92.5% and the viability, T/C [8] was 88.5%. For the same molecule, the viability, T/C [25] was 83.2%, the viability, T/C [26] was 81.9% and the viability, T/C [9] was 85.4%. It also gave a viability, T/C [10] of 86.4%, a viability, T/C [11] of 85% and a viability, T/C [12] of 79.8%. It also gave a viability, T/C [29] of 81%, a viability, T/C [30] of 76% and a viability, T/C [13] of 61.5%. It also gave a viability, T/C [14] of 65.8%, a viability, T/C [15] of 71.1% and a viability, T/C [16] of 60.6%. For the same molecule, the viability, T/C [33] was 62.8%, the viability, T/C [34] was 63.4% and the viability, T/C [17] was 4.02%. For the same molecule, the viability, T/C [18] was 3.97%, the viability, T/C [19] was 6.07% and the viability, T/C [20] was 3.94%. The viability, T/C [37] was 4.34% and the viability, T/C [38] was 4.63%.
